Measured values: paper PMC8261488, “Contraceptive progestins with androgenic properties stimulate breast epithelial cell proliferation” (EMBO Molecular Medicine, 2021)
“And” between values parts separate entries of the source, which are not always exact repeats. Identical values can stand only once.

Assays:
AR = tested on: AR; parameters: method as in earlier work; details: various assays, ref Fuhrmann et al, 1995, Muhn et al, Bouchard, 2005, Mishell, 2008, Schneider et al, 2009, Africander et al, 2011, Louw‐du Toit et al, 2017; cited from earlier work
[1] = tested on: endogenous hormone levels in mice; assay: Endogenous steroid hormone plasma levels in treated host mice by LC-MS; format: in vivo, mouse; details: xenografted NSG females with pellets
Source text: Next, we assessed whether progesterone and progestins differentially affected endogenous hormone levels in mice. Plasma 17‐β‐estradiol levels were not affected by any of the treatments (Fig 4H). […] Plasma testosterone levels were not altered by any treatment with the exception of DSP, which decreased them (Fig 4H). Thus, prolonged exposures to progestins differentially affect endogenous progesterone plasma levels and DSP decreases testosterone plasma levels in host mice.

HBECs [2] = assay: MKI67/Ki67 expression in xenografted HBECs; format: in vivo, human; details: 21 days pellets; for cell proliferation (KI67 and hECAD double+ cells), overall analysis: HBECs from 11 different patients; for cell proliferation (KI67 and hECAD double+ cells): one mammoplasty (M310)
Source text: (§1) Next, we sought for a readout of in vivo cell proliferation different from radiance. […] Given that MKI67 expression could replace the luciferase measurements as a readout, we used a modified experimental setup for a second round of experiments. We derived HBECs from viably frozen mammoplasty samples (Appendix Table S3) and engrafted them to different mammary glands of NSG females without viral infection. Four months later, the 24 recipient females, each engrafted with 5 different mammoplasties received pellets containing either vehicle, progesterone, or 1 of 6 progestins for 21 days. At sacrifice, xenografted glands were histologically sectioned and cell proliferation was quantified using co‐IF with anti‐MKI67 and anti‐hECAD antibodies. For one of the mammoplasties, we were able to obtain measurements for all experimental conditions (Fig 5I). […] For the remaining mammoplasties, between 3 and 8 different experimental conditions were successfully quantified (Appendix Table S4). […] CPA (P < 0.0001) decreased proliferation, whereas CMA and DSP had no effect (Fig 5K). As AR signaling increases AR protein levels, we performed co‐IF for AR and hECAD as another means to assess AR signaling activity.
Tissues were fixed for 2 h at room temperature in 4% paraformaldehyde and paraffin‐embedded. Dewaxed and rehydrated paraffin sections were pretreated in 10 mM Na citrate (pH 6.0) at 95° for 20 min. Blocking was performed with 1% BSA for 60 min. Primary antibodies used were as follows: Ki67 (rabbit α‐Ki67, clone Sp6, Spring Amsbio, dilution 1:200), ER (rabbit α‐ER, clone Sp1, Zytomed RTU), PR (rabbit α‐PR, clone 1E2, Ventana RTU), AR (rabbit α‐AR, clone SP107, Thermo Fisher, diluted 1:200), CK7 (rabbit α‐CK7, clone Sp52, Abcam, diluted 1:500), CK19 (mouse KS19.2 (Z105.6), American Research Products Inc. (diluted 1:50), and mouse α‐ECAD (clone G‐10, sc‐8426, diluted 1:100). For IHC, chromogenic revelation was performed with ChromoMap DAB kit (Roche Diagnostics, Switzerland) and sections were counterstained with Mayer’s hematoxylin. For fluorescence microscopy, nuclei were counterstained with DAPI (Sigma). IHC for ER, PR, and AR was performed on Discovery Ventana ULTRA (44). IHC images were acquired on Leica DM 2000 with Leica DFC450 C camera. IF images were acquired on Zeiss LSM700 confocal microscope. Slides were scanned with Olympus VS120‐L100 slide scanner with 20×/0.75 objective and Pike F505 C Color camera. Images were loaded into QuPath using the BioFormats extension (Bankhead et al, 2017).

KLK3 = KLK3 mRNA in xenografted HBECs by RT-PCR with human-specific primers; format: in vivo; details: 21 days pellets (Fig 5M)
Source text: Consistent with AR and PR sharing a common hormone response element (Claessens et al, 1996), KLK3 was induced upon progestin stimulation. […] This is in agreement with previous findings that KLK3 expression is under the control of both androgens and progestins in T47D cells (Zarghami et al, 1997).
as §1
(§2) Human breast microstructures and mouse organoids were homogenized in Trizol (Invitrogen). Aqueous phase containing RNA was chloroform extracted and processed with miRNeasy extraction kit (Qiagen). cDNA was synthesized using random p(dN)6 primers (Roche) and MMLV reverse transcriptase (Invitrogen). SYBR Green PCR Core Reagent System (Qiagen) was used for semi‐quantitative real time (RT‐PCR) using the following primers.

human breast epithelium = details: female, mouse, in vivo, 8 months
Method: All the engrafted glands were processed for histological analysis and H&E stained.
(§7) Mice were anesthetized by intraperitoneal injection with 10 mg/kg xylazine and 90 mg/kg ketamine (Graeub) and injected intraductally with 10 μl cell suspension per gland. Bioluminescence imaging was performed as described (Sflomos et al, 2016). After 3–10 weeks, when bioluminescence from individual glands reached 10^7 total flux (p/s/cm2/sr), animals were assigned to different treatment groups and hormone pellets implanted subcutaneously. Enzalutamide (Selleckchem, Catalog No. S1250) dissolved in 15% DMSO in PEG300 was injected intraperitoneally 3 times/week at 30 mg/kg.

Wnt4 [3] = assay: Wnt4 transcript levels by RT-PCR in mouse mammary organoids stimulated ex vivo; format: cell-based; details: for Wnt4 transcript levels over vehicle-treated control: BalbC females, 6 h of stimulation
Method: (§3) Next, we stimulated mouse mammary organoids derived from several BalbC females with R5020 or different progestins (Fig 1A). […] No significant change in Rankl and Wnt4 transcript levels was detected during the first 2 h (Appendix Fig S1D). By 6 h of R5020 stimulation, Rankl and Wnt4 transcript levels increased 22.4 and 5.8‐fold over the vehicle‐treated control, respectively.
(§4) Animal experiments were performed in accordance with protocol approved by the Service de la Consommation et des Affaires vétérinaires of Canton de Vaud (VD 1865.3, VD 1865.4). NOD. Cg‐Prkdc^scid Il2rg^tm1Wjl/SzJ mice (Charles River), BalbC, and C57Bl6 breeders were purchased from Jackson Laboratories. Mammary glands were isolated from 18‐ to 35‐week‐old mice, lymph nodes removed, minced with surgical blades, and digested in DMEM/F12, 1% penicillin/streptomycin B with collagenase A 0.25 mg/ml (Roche). […] Fat was removed, and pellet containing organoids washed with phosphate‐buffered saline (PBS), resuspended 5 min in 3 ml red cell blood lysis buffer and washed twice with PBS.
as §2

Rankl [4] = assay: Rankl transcript levels by RT-PCR in mouse mammary organoids stimulated ex vivo; format: cell-based; details: for Rankl transcript levels over vehicle-treated control: BalbC females, 6 h of stimulation
Method: as §3, §4, §2

HBECs [5] = assay: In vivo growth of intraductal HBEC xenografts measured by radiance; details: 60 days of treatment, subcutaneous pellets
Source text: To compare the effects of progesterone and different progestins on HBECs in vivo, we infected single cell suspensions obtained from fresh reduction mammoplasty specimens with GFP‐luciferase2‐expressing lentiviruses. The infected cell mixture was grafted intraductally to up to 5 glands of as many recipients as possible. The engraftment and growth of the xenografted cells were monitored weekly by in vivo imaging. When radiance reached > 10E07 on average per mammary gland, 60‐day‐release pellets were implanted subcutaneously, usually within 3–10 weeks after cell injection. At sacrifice, blood was collected and plasma levels of the administered compounds as well as endogenous steroid hormones were determined by liquid chromatography‐mass spectrometry (LC‐MS) (Laszlo et al, 2019).
Next, the in vivo growth of HBEC xenografts stimulated with progesterone or different progestins was analyzed. […] In addition, the fold change radiance of treated versus untreated samples at endpoint was calculated (Fig 5A–C).
as §7
Pellets were prepared by mixing the required amount of part A, MP3745/E81949 and part B, MP3744/E81950 of low consistency silicon elastomer (MED‐4011) and hormone powder to homogeneity. Mix was transferred to a syringe and incubated at 37°C overnight. The silicon‐hormone mass was removed from the syringe and cut to pieces, as described (Duss et al, 2007). The original protocol was adapted for different doses as described below.

HBECs [6] = assay: In vivo growth of HBEC xenografts treated with LNG with or without enzalutamide; parameters: species or system human; details: enzalutamide 30 mg/kg intraperitoneally 3 times/week, the 2 LNG-responsive PDXs
Method: Mice were anesthetized by intraperitoneal injection with 10 mg/kg xylazine and 90 mg/kg ketamine (Graeub) and injected intraductally with 10 μl cell suspension per gland. […] After 3–10 weeks, when bioluminescence from individual glands reached 10^7 total flux (p/s/cm2/sr), animals were assigned to different treatment groups and hormone pellets implanted subcutaneously. Enzalutamide (Selleckchem, Catalog No. S1250) dissolved in 15% DMSO in PEG300 was injected intraperitoneally 3 times/week at 30 mg/kg.

Wnt4 [7] = assay: Wnt4 induction by R5020 or LNG in mouse mammary organoids co-treated with AR antagonists; format: cell-based; details: antagonist 100 µM, 6 h, C57Bl6-derived organoids
Method: (§5) Enzalutamide (100 µM) abrogated Rankl induction by R5020 (P < 0.05) but had no effect on Wnt4 induction (Fig 1H).
(§6) Animal experiments were performed in accordance with protocol approved by the Service de la Consommation et des Affaires vétérinaires of Canton de Vaud (VD 1865.3, VD 1865.4). NOD. Cg‐Prkdc^scid Il2rg^tm1Wjl/SzJ mice (Charles River), BalbC, and C57Bl6 breeders were purchased from Jackson Laboratories. Mammary glands were isolated from 18‐ to 35‐week‐old mice, lymph nodes removed, minced with surgical blades, and digested in DMEM/F12, 1% penicillin/streptomycin B with collagenase A 0.25 mg/ml (Roche). Tissue was concomitantly stimulated with hormones for 1, 2, or 6 h and centrifuged at 652 g for 5 min. Fat was removed, and pellet containing organoids washed with phosphate‐buffered saline (PBS), resuspended 5 min in 3 ml red cell blood lysis buffer and washed twice with PBS.
as §2

Rankl [8] = assay: Rankl induction by R5020 or LNG in mouse mammary organoids co-treated with AR antagonists; format: cell-based; details: 6 h
Method: as §5, §6, §2

[9] = BalbC-derived organoids, 24 h of stimulation
[10] = antagonist 100 µM, C57Bl6-derived organoids

SMILES: C#C[C@]1(O)C=C[C@H]2[C@@H]3CCC4=CC(=O)CC[C@@H]4[C@H]3CC[C@@]21CC [GSN, gestodene]
- androgenic / anti-androgenic activity (AR): androgenic activity
- endogenous progesterone plasma levels (estrous cycle-related variation) [1]: suppressed
- cell proliferation (KI67 and hECAD double+ cells), overall analysis (HBECs [2]): increased
- cell proliferation (KI67 and hECAD double+ cells) (HBECs [2]): significantly increased
- KLK3 transcripts levels (KLK3): increased
- morphologic changes in xenografts (H&E) (human breast epithelium): 3 or 4 grafts showed diffuse and in some cases marked acinar proliferation
- Wnt4 transcript levels over vehicle-treated control (Wnt4 [3]): 4.9 fold
- Wnt4 transcript induction (Wnt4 [3]; [9]): 33.5 fold
- Wnt4 transcript induction (Wnt4 [3]; C57Bl/6 mice, 6 h, 20 nM): 3.6 fold
- Rankl transcript levels over vehicle-treated control (Rankl [4]): 18.2 fold
- Rankl transcript induction (Rankl [4]; [9]): 617.2 fold
- Rankl transcript induction (Rankl [4]; C57Bl/6 mice, 6 h, 20 nM): 21.5 fold
- growth (course of radiance) of engrafted HBECs versus control (HBECs [5]): increased growth
- relative radiance at endpoint over control (FC) (HBECs [5]): 2.2 fold

SMILES: C#C[C@]1(O)CC[C@H]2[C@@H]3CCC4=CC(=O)CC[C@@H]4[C@H]3C(=C)C[C@@]21CC [DSG, 3‐ketodesogestrel]
- androgenic / anti-androgenic activity (AR): androgenic activity
- endogenous progesterone plasma levels (estrous cycle-related variation) [1]: suppressed
- cell proliferation (KI67 and hECAD double+ cells), overall analysis (HBECs [2]): increased
- cell proliferation (KI67 and hECAD double+ cells) (HBECs [2]): significantly increased
- KLK3 transcripts levels (KLK3): increased
- morphologic changes in xenografts (H&E) (human breast epithelium): 3 or 4 grafts showed diffuse and in some cases marked acinar proliferation
- Wnt4 transcript levels over vehicle-treated control (Wnt4 [3]): 8.5 fold
- Wnt4 transcript induction (Wnt4 [3]; [9]): 32.2 fold
- Wnt4 transcript induction (Wnt4 [3]; C57Bl/6 mice, 6 h, 20 nM): 4.2 fold
- Rankl transcript levels over vehicle-treated control (Rankl [4]): 22.3 fold
- Rankl transcript induction (Rankl [4]; [9]): 177.2 fold
- Rankl transcript induction (Rankl [4]; C57Bl/6 mice, 6 h, 20 nM): 15.5 fold
- growth (course of radiance) of engrafted HBECs versus control (HBECs [5]): increased growth
- relative radiance at endpoint over control (FC) (HBECs [5]): 2 fold and 2.0 fold

SMILES: CNC(=O)c1ccc(N2C(=S)N(c3ccc(C#N)c(C(F)(F)F)c3)C(=O)C2(C)C)cc1F [enzalutamide]
- effect of enzalutamide on LNG-induced proliferation (HBECs [6]): decreased the proliferative effects of LNG
- effect of AR antagonist on Wnt4 induction by LNG (Wnt4 [7]): not affected
- effect of AR antagonist on Wnt4 induction by R5020 (Wnt4 [7]): no effect
- effect of AR antagonist on Rankl induction (Rankl [8]; antagonist 10 µM, n = 3): failed to reach significance
- effect of AR antagonist on Rankl induction by LNG (Rankl [8]; [10]): significantly reduced
- effect of AR antagonist on Rankl induction by R5020 (Rankl [8]; [10]): abrogated
